According to patent US4902622A, “Novel α-1,6-glucosidase and process for producing the same” (Amano Pharmaceutical Co., Ltd., priority 1986, dated 1990):
“Also recorded” adds a separate entry of the source.

Experiments:
Format in all cases: biochemical, Bacillus sectorramus
α-1,6-glucosidase [1] = test: Influence of metal salt on enzyme activity; conditions: for Remaining activity (%): 50 mM acetic acid buffer (pH 4.5), 30 minutes at 40° C., final concentration of metal salt 5 mM; for Influence of metal salts: metal salt 5 mM
Description: (§1) 8. Assay of activity: 4 ml of 0.5% pullulan solution (pH 4.5) was added to 1 ml of an enzyme solution, and the reaction was carried out for 30 minutes at 40° C. Then, 2 ml of Somogyi solution was added, the mixture was heated for 20 minutes and then cooled. After cooling, 1 ml of ammonium arsenomolybdenate was added, and water was added to a total volume of 25 ml. Absorbance of this solution was measured at 500 nm, with a layer thickness of 1 cm. Under these conditions, the activity was defined as one unit when reducing sugar corresponding to 1 μmol of glucose was produced per minute.
10. […] Influences of various metal salts are shown in Table 5, indicating the remaining activity after treatment in a 50 mM acetic acid buffer (pH 4.5) for 30 minutes at 40° C., with a final concentration of metal salt of 5 mM.

α-1,6-glucosidase [2] = test: Relative activity to polysaccharides (substrate specificity); conditions: activity of the enzyme on the polysaccharide, pullulan = 100
Description: 3. Relative activity to polysaccharides: Table 3 compares the relative activity of the enzyme on pullulan to relative activity on soluble maize amylopectin, soluble starch, oyster glycogen, hare glycogen, maize amylopectin, and potato amylopectin.
as §1

α-1,6-glucosidase [3] = test: Influence of inhibitor on enzyme activity
Description: as §1

α-1,6-glucosidase [4] = test: Km value and Vmax to substrates; conditions: substrate of the purified enzyme
Description: After the cultivation period, the cells were removed from the culture broth, and the supernatant fraction thus obtained was concentrated to obtain a preparation of crude pullulanase. This preparation was fractionated with ammonium sulfate, then subjected to affinity chromatography with γ-cyclodextrin-cephalose 6B (produced by coupling γ-cyclodextrin to activated Sepharose 6B (trade mark, Pharmacia Fine Chemical Co.)) and purified to a single band by electrophoresis utilizing SDS-polyacrylamide gel. The following explains the enzymochemical properties of the α-1,6-glucosidase thus purified.
2. Km value and Vmax to substrates: The Km value (mg/ml) and Vmax value (μmol/min/mg protein) of the enzyme to pullulan, potato amylopectin, and corn amylopectin are as shown in Table 2:
as §1

[5] = 50 mM acetic acid buffer (pH 4.5), 30 minutes at 40° C., final concentration of inhibitor 1 mM

`O.O.[Cl][Cu][Cl]` [CuCl2.2H2 O] was tested, and the “Remaining activity (%)” value (α-1,6-glucosidase [1]) was 73.4%.
Soluble starch was tested, and the “Relative activity (%)” value (α-1,6-glucosidase [2]) was 6.7%.
In the case of `O.O.O.O.O.O.[Cl-].[Cl-].[Mg+2]` [MgCl2.6H2 O], the “Remaining activity (%)” value (α-1,6-glucosidase [1]) is reported as 91.3%.
With `CCN1C(=O)C=CC1=O` [N--ethylmaleimide] the “Remaining activity (%)” value (α-1,6-glucosidase [3]; [5]) was 65.5%.
`[Ba+2].[Cl-].[Cl-]` [BaCl2] was tested, and the “Remaining activity (%)” value (α-1,6-glucosidase [1]) was 98.9% and the “Influence of metal salts” value (α-1,6-glucosidase [1]) was “negligibly affected”.
In the case of `O.O.O.O.[Cl][Mn][Cl]` [MnCl2.4H2 O], the “Remaining activity (%)” value (α-1,6-glucosidase [1]) is reported as 85.9% and the “Influence of metal salts” value (α-1,6-glucosidase [1]) is reported as “negligibly affected”.
With `[Cl][Fe][Cl]` [FeCl2.nH2 O] the “Remaining activity (%)” value (α-1,6-glucosidase [1]) was 82.1%.
For `[Cl][Fe]([Cl])[Cl]` [FeCl3], the “Remaining activity (%)” value (α-1,6-glucosidase [1]) was 57.8% and the “Influence of metal salts” value (α-1,6-glucosidase [1]) was “inhibited”.
With `[Ca+2].[Cl-].[Cl-]` [CaCl2] the “Remaining activity (%)” value (α-1,6-glucosidase [1]) was 79.1%.
In the case of Pullulan, the Km (α-1,6-glucosidase [4]) is reported as 0.14 mg/mL, the Vmax (α-1,6-glucosidase [4]) is reported as 70.0 μmol/min/mg protein and the “Relative activity (%)” value (α-1,6-glucosidase [2]) is reported as 100%.
`O=C(O)c1cc[c]([Hg][Cl])cc1` [PCMB, p-chloromercuribenzoic acid] was tested, and the “Remaining activity (%)” value (α-1,6-glucosidase [3]; [5]) was 27.1%.
For `[Cl-].[Cl-].[Sr+2]` [SrCl2], the “Remaining activity (%)” value (α-1,6-glucosidase [1]) was 74.5%.
With `[Cl][Hg][Cl]` [HgCl2] the “Remaining activity (%)” value (α-1,6-glucosidase [1]) was 0% and the “Influence of metal salts” value (α-1,6-glucosidase [1]; listed as Hg^2+) was “deactivated; also recorded: losses activity”.
`O=C(O)CI` [Monoiodo-acetic acid] was tested, and the “Remaining activity (%)” value (α-1,6-glucosidase [3]; pH 4.5) was 66.5%.
In the case of `Cl.Cl.[Ag]` [AgCl2], the “Remaining activity (%)” value (α-1,6-glucosidase [1]) is reported as 2.7% and the “Influence of metal salts” value (α-1,6-glucosidase [1]; listed as Ag^2+) is reported as “deactivated; also recorded: losses activity”.
With `O.O.O.O.O.[Cd+2].[Cd+2].[Cl-].[Cl-].[Cl-].[Cl-]` [CdCl2.21/2H2 O] the “Remaining activity (%)” value (α-1,6-glucosidase [1]) was 92.4% and the “Influence of metal salts” value (α-1,6-glucosidase [1]) was “negligibly affected”.
`[Cl-].[Cl-].[Co+2]` [CoCl2] was tested, and the “Remaining activity (%)” value (α-1,6-glucosidase [1]) was 87.7%.
In the case of `c1cnc2c(c1)ccc1cccnc12` [o-phenanthroline], the “Remaining activity (%)” value (α-1,6-glucosidase [3]; [5]) is reported as 109.0% and the “Influence of inhibitor” value (α-1,6-glucosidase [3]; inhibitor 1 mM) is reported as “not and not inhibited”.
For `O.O.O.O.O.O.[Cl][Ni][Cl]` [NiCl2.6H2 O], the “Remaining activity (%)” value (α-1,6-glucosidase [1]) was 102.7% and the “Influence of metal salts” value (α-1,6-glucosidase [1]) was “negligibly affected”.
`O.O.[Cl][Sn][Cl]` [SnCl2.2H2 O] was tested, and the “Remaining activity (%)” value (α-1,6-glucosidase [1]) was 82.1%.
In the case of `O=C(O)CN(CCN(CC(=O)O)CC(=O)O)CC(=O)O` [EDTA], the “Remaining activity (%)” value (α-1,6-glucosidase [3]; pH 4.5) is reported as 93.1%.
With `[Cl-].[Cl-].[Zn+2]` [ZnCl2] the “Remaining activity (%)” value (α-1,6-glucosidase [1]) was 97.3% and the “Influence of metal salts” value (α-1,6-glucosidase [1]) was “negligibly affected”.
With `CCCCCCCCCCCCOS(=O)(=O)[O-].[Na+]` [SDS, sodium dodecylsulfate] the “Remaining activity (%)” value (α-1,6-glucosidase [3]; [5]) was 1.5%.
